In brackets after ≈: the same amount, converted by molar mass. Where two headings read alike, the source gives them in different places.
Key:
[1] = test system: S. aureus SHY97-3906; assay: MIC, microdilution in CAMHB 24 h; assay type: cell-based, Staphylococcus aureus; conditions: for MIC: Staphylococcus aureus, SHY973906
[2] = test system: S. aureus CF2A-L; assay: MIC, microdilution in CAMHB 24 h; assay type: cell-based; conditions: CF2A-L; for MIC: Staphylococcus aureus, CF2AL
[3] = test system: S. aureus N315; assay: microbe, parasite or virus in culture; assay type: cell-based, Staphylococcus aureus; conditions: for MIC: Staphylococcus aureus
[4] = test system: S. aureus Newman; assay: MIC, microdilution in CAMHB 24 h; assay type: cell-based, Staphylococcus aureus; conditions: Newman; for MIC: Staphylococcus aureus
[5] = test system: S. aureus CF9A-L; assay: MIC, microdilution in CAMHB 24 h; assay type: cell-based, Staphylococcus aureus; conditions: CF9A-L; for MIC: Staphylococcus aureus
[6] = test system: S. aureus Newbould; assay: MIC, microdilution in CAMHB 24 h; assay type: cell-based, Staphylococcus aureus; conditions: Newbould; for MIC: Staphylococcus aureus
[7] = test system: S. aureus CF1A-L; assay: MIC, microdilution in CAMHB 24 h; assay type: cell-based, Staphylococcus aureus; conditions: CF1A-L; for MIC: Staphylococcus aureus, CF1AL
[8] = test system: S. aureus CF07-L; assay: MIC, microdilution in CAMHB 24 h; assay type: cell-based, Staphylococcus aureus; conditions: CF07-L; for MIC: Staphylococcus aureus, CF07L
[9] = test system: S. aureus CF7A-L; assay: MIC, microdilution in CAMHB 24 h; assay type: cell-based, Staphylococcus aureus; conditions: CF7A-L; for MIC: Staphylococcus aureus
[10] = test system: S. aureus ATCC BAA-41; assay: MIC, microdilution in CAMHB 24 h; assay type: cell-based, Staphylococcus aureus; conditions: for MIC: Staphylococcus aureus
[11] = test system: S. aureus CF8E-L; assay: MIC, microdilution in CAMHB 24 h; assay type: cell-based, Staphylococcus aureus; conditions: CF8E-L; for MIC: Staphylococcus aureus, CF8EL
[12] = test system: S. aureus CF35A-L; assay: MIC, microdilution in CAMHB 24 h; assay type: cell-based, Staphylococcus aureus; conditions: CF35A-L; for MIC: Staphylococcus aureus
[13] = test system: S. aureus CF4B-L; assay: MIC, microdilution in CAMHB 24 h; assay type: cell-based, Staphylococcus aureus; conditions: CF4B-L; for MIC: Staphylococcus aureus, CF4BL
[14] = test system: S. aureus Mu50; assay: MIC, microdilution in CAMHB 24 h; assay type: cell-based, Staphylococcus aureus; conditions: for MIC: Staphylococcus aureus
[15] = test system: S. aureus ATCC 29213; assay: Checkerboard assay, aminoglycoside and tomatidine; assay type: cell-based, Staphylococcus aureus; conditions: for MIC: Staphylococcus aureus, ATCC29213, checkerboard
[16] = test system: S. aureus ATCC 29213; assay: Time-kill experiments, aminoglycoside alone or with tomatidine (FIGS. 8-10); conditions: alone at ≧1×MIC (1 μg/ml); regrowth observed within 24 h; FIG. 9
[17] = test system: S. aureus 8325-4; assay: MIC, microdilution in CAMHB 24 h; assay type: cell-based, Staphylococcus aureus; conditions: 8325-4; for MIC: Staphylococcus aureus, 83254
[18] = test system: S. aureus Sa220c; assay: MIC, microdilution in CAMHB 24 h; assay type: cell-based, Staphylococcus aureus; conditions: Sa220c; for MIC: Staphylococcus aureus
[19] = test system: S. aureus ATCC 43300; assay: MIC, microdilution in CAMHB 24 h; assay type: cell-based, Staphylococcus aureus; conditions: ATCC 43300; for MIC: Staphylococcus aureus
[20] = 8 μg/ml of tomatidine, read-out: MIC +TO
[21] = Human (CF lungs), read-out: MIC
[22] = absence of tomatidine, read-out: MIC −TO
[23] = Human (CF lungs), MRSA, read-out: MIC

## NC[C@H]1O[C@H](O[C@H]2[C@H](O)[C@@H](O[C@H]3O[C@H](CO)[C@@H](O)[C@H](N)[C@H]3O)[C@H](N)C[C@@H]2N)[C@H](N)C[C@@H]1O [Tobramycin, tobramycin]
[1]; SHY-3906, 8 μg/ml of tomatidine
  Fold (−TO/+TO): 8 fold
[1]; SHY97-3906, Cow (mastitis), read-out: MIC
  MIC: 0.25 µg/mL (≈ 0.535 µM)
[1]; SHY-3906, 8 μg/ml of tomatidine, read-out: MIC +TO
  MIC: 0.03 µg/mL (≈ 0.0642 µM)
[1]; SHY-3906, absence of tomatidine, read-out: MIC −TO
  MIC: 0.25 µg/mL (≈ 0.535 µM)
[2]; 8 μg/ml of tomatidine
  Fold (−TO/+TO): 8-16 fold
[2]; [20]
  MIC: 0.06 to 0.12 µg/mL (≈ 0.128 to 0.257 µM)
[2]; [21]
  MIC: 1 µg/mL (≈ 2.14 µM)
[2]; [22]
  MIC: 1 µg/mL (≈ 2.14 µM)
[3]; N315, 8 μg/ml of tomatidine
  Fold (−TO/+TO): 2-4 fold
[3]; MRSA
  MIC: 512 µg/mL (≈ 1100 µM)
[3]; N315, read-out: MIC +TO
  MIC: 128 to 256 µg/mL (≈ 274 to 548 µM)
[3]; N315, read-out: MIC −TO
  MIC: 512 µg/mL (≈ 1100 µM)
[4]; 8 μg/ml of tomatidine
  Fold (−TO/+TO): 2-8 fold
[4]; [20]
  MIC: 0.06 to 0.12 µg/mL (≈ 0.128 to 0.257 µM)
[4]; Human (Osteo), read-out: MIC
  MIC: 0.25 to 0.5 µg/mL (≈ 0.535 to 1.07 µM)
[4]; [22]
  MIC: 0.25 to 0.5 µg/mL (≈ 0.535 to 1.07 µM)
[5]; 8 μg/ml of tomatidine
  Fold (−TO/+TO): 4-8 fold
[5]; CF9AL, ant(4′)-Ia, 8 μg/ml of tomatidine, read-out: MIC +TO
  MIC: 64 to 256 µg/mL (≈ 137 to 548 µM)
[5]; CF9AL, ant(4′)-Ia, absence of tomatidine, read-out: MIC −TO
  MIC: 512 to 1020 µg/mL (≈ 1100 to 2190 µM)
[5]; [23]
  MIC: 512 to 1020 µg/mL (≈ 1100 to 2190 µM)
[6]; 8 μg/ml of tomatidine
  Fold (−TO/+TO): 8 fold
[6]; [20]
  MIC: 0.06 to 0.12 µg/mL (≈ 0.128 to 0.257 µM)
[6]; Cow (mastitis), read-out: MIC
  MIC: 0.5 to 1 µg/mL (≈ 1.07 to 2.14 µM)
[6]; [22]
  MIC: 0.5 to 1 µg/mL (≈ 1.07 to 2.14 µM)
[7]; 8 μg/ml of tomatidine
  Fold (−TO/+TO): 4-16 fold
[7]; [20]
  MIC: 0.06 to 0.25 µg/mL (≈ 0.128 to 0.535 µM)
[7]; [21]
  MIC: 1 µg/mL (≈ 2.14 µM)
[7]; [22]
  MIC: 1 µg/mL (≈ 2.14 µM)
[8]; 8 μg/ml of tomatidine
  Fold (−TO/+TO): 4-8 fold
[8]; [20]
  MIC: 0.06 to 0.12 µg/mL (≈ 0.128 to 0.257 µM)
[8]; [21]
  MIC: 0.5 to 1 µg/mL (≈ 1.07 to 2.14 µM)
[8]; [22]
  MIC: 0.5 to 1 µg/mL (≈ 1.07 to 2.14 µM)
[9]; 8 μg/ml of tomatidine
  Fold (−TO/+TO): 2-8 fold
[9]; CF7AL, ant(4′)-Ia, 8 μg/ml of tomatidine, read-out: MIC +TO
  MIC: 128 to 512 µg/mL (≈ 274 to 1100 µM)
[9]; CF7AL, ant(4′)-Ia, absence of tomatidine, read-out: MIC −TO
  MIC: 1020 µg/mL (≈ 2190 µM)
[9]; [23]
  MIC: 1020 µg/mL (≈ 2190 µM)
[10]; ATCC BAA-41, 8 μg/ml of tomatidine
  Fold (−TO/+TO): 4 fold
[10]; ATCC BAA-41 / MRSA, ATCC BAA-41, Human (HA), MRSA, read-out: MIC
  MIC: 512 µg/mL (≈ 1100 µM)
[10]; ATCCBAA41, ATCC BAA-41, ant(4′)-Ia, 8 μg/ml of tomatidine, read-out: MIC +TO
  MIC: 128 µg/mL (≈ 274 µM)
[10]; ATCCBAA41, ATCC BAA-41, ant(4′)-Ia, absence of tomatidine, read-out: MIC −TO
  MIC: 512 µg/mL (≈ 1100 µM)
[11]; 8 μg/ml of tomatidine
  Fold (−TO/+TO): 4 fold
[11]; [20]
  MIC: 0.25 µg/mL (≈ 0.535 µM)
[11]; [21]
  MIC: 1 µg/mL (≈ 2.14 µM)
[11]; [22]
  MIC: 1 µg/mL (≈ 2.14 µM)
[12]; 8 μg/ml of tomatidine
  Fold (−TO/+TO): 8-16 fold
[12]; CF35AL, 8 μg/ml of tomatidine, read-out: MIC +TO
  MIC: 0.06 µg/mL (≈ 0.128 µM)
[12]; CF35AL, absence of tomatidine, read-out: MIC −TO
  MIC: 0.5 to 1 µg/mL (≈ 1.07 to 2.14 µM)
[12]; [23]
  MIC: 0.5 to 1 µg/mL (≈ 1.07 to 2.14 µM)
[13]; 8 μg/ml of tomatidine
  Fold (−TO/+TO): 4-16 fold
[13]; [20]
  MIC: 0.06 to 0.12 µg/mL (≈ 0.128 to 0.257 µM)
[13]; [21]
  MIC: 0.5 to 1 µg/mL (≈ 1.07 to 2.14 µM)
[13]; [22]
  MIC: 0.5 to 1 µg/mL (≈ 1.07 to 2.14 µM)
[14]; Mu50, 8 μg/ml of tomatidine
  Fold (−TO/+TO): 8 fold
[14]; Mu50, aac(6′)-aph(2″), ant(4′)-Ia, 8 μg/ml of tomatidine, read-out: MIC +TO
  MIC: 128 µg/mL (≈ 274 µM)
[14]; Mu50, aac(6′)-aph(2″), ant(4′)-Ia, absence of tomatidine, read-out: MIC −TO
  MIC: 1020 µg/mL (≈ 2190 µM)
[14]; Mu50, Human (SSTI), MRSA, VISA, read-out: MIC
  MIC: 1020 µg/mL (≈ 2190 µM)
[15]; tomatidine 0 μg/ml
  MIC: 0.25 to 0.5 µg/mL
[15]; tomatidine 0.06 μg/ml
  MIC: 0.25 µg/mL
[15]; tomatidine 0.12 μg/ml
  MIC: 0.03 to 0.12 µg/mL
[15]; tomatidine 0.25 μg/ml
  MIC: 0.03 to 0.06 µg/mL
[15]; tomatidine 0.5 μg/ml
  MIC: 0.03 µg/mL
[15]; tomatidine 1 μg/ml
  MIC: 0.03 to 0.06 µg/mL
[15]; tomatidine 2 μg/ml
  MIC: 0.03 to 0.06 µg/mL
[15]; tomatidine 4 μg/ml
  MIC: 0.03 to 0.06 µg/mL
[15]; tomatidine 8 μg/ml
  MIC: 0.06 µg/mL
[15]; aminoglycoside with tomatidine, tomatidine MIC considered 32 μg/ml, values overestimated
  FIC index: ≦0.133
[16]
  time-kill activity alone: bactericidal
[17]; 8 μg/ml of tomatidine
  Fold (−TO/+TO): 4 fold
[17]; [20]
  MIC: 0.03 to 0.06 µg/mL (≈ 0.0642 to 0.128 µM)
[17]; Laboratory strain, read-out: MIC
  MIC: 0.12 to 0.25 µg/mL (≈ 0.257 to 0.535 µM)
[17]; [22]
  MIC: 0.12 to 0.25 µg/mL (≈ 0.257 to 0.535 µM)
[18]; 8 μg/ml of tomatidine
  Fold (−TO/+TO): 4-16 fold
[18]; [20]
  MIC: 0.06 to 0.12 µg/mL (≈ 0.128 to 0.257 µM)
[18]; Human (SSTI), MRSA, read-out: MIC
  MIC: 0.5 to 1 µg/mL (≈ 1.07 to 2.14 µM)
[18]; [22]
  MIC: 0.5 to 1 µg/mL (≈ 1.07 to 2.14 µM)
[19]; 8 μg/ml of tomatidine
  Fold (−TO/+TO): 4-8 fold
[19]; ATCC 43300 / MRSA, Human (HA), MRSA, read-out: MIC
  MIC: 512 to 1020 µg/mL (≈ 1100 to 2190 µM)
[19]; ATCC43300, 8 μg/ml of tomatidine, read-out: MIC +TO
  MIC: 128 µg/mL (≈ 274 µM)
[19]; ATCC43300, absence of tomatidine, read-out: MIC −TO
  MIC: 512 to 1020 µg/mL (≈ 1100 to 2190 µM)

— patent US9457033B2, “Steroid alkaloids and uses thereof as antimicrobial agents against electron transport-deficient microbes and as potentiators for antimicrobial agents against pathogenic bacteria” (priority 2011, dated 2016)
